Patent US20260131007A1, “Mannose 6-Phosphate Receptor Binding Compounds for the Degradation of Extracellular Proteins” (Avilar Therapeutics, Inc., priority 2023, published 2026)
Structures can show the parent of a compound that is named as a salt. Bridge positions count the residues as written; N and C are the ends. Square brackets hold non-standard residues; d marks the D form.

B1: Compound 1 (peptide)
peptide: cyclo(ELVWCT[dP]PDCAWHLG)
modifications: disulfide 5-10; not fully specified (residue 8); also: trivalent linker structure not given here
B2: Compound 6 (peptide)
peptide: cyclo(ELVWCT[dP]PDCAWHLG)
modifications: disulfide 5-10; not fully specified (residue 8); also: one triazole-linked (2-(6-(but-3-yn-1-yloxy)-3,4,5-trihydroxytetrahydro-2H-pyran-2-yl)ethyl)phosphonic acid group on the PEG8 linker
B3: Compound 9 (peptide)
peptide: cyclo(ELVWCT[dP]PDCAWHLG)
modifications: disulfide 5-10; not fully specified (residue 8); also: branched PEG linker structure not given here
B4: Compound 10 (peptide)
peptide: cyclo(ELVWCT[dP]PDCAWHLG)
modifications: disulfide 5-10; not fully specified (residue 8); also: trivalent linker structure not given here
B5: Compound 11 (peptide)
peptide: cyclo(ELVWCT[dP]PDCAWHLG)
modifications: disulfide 5-10; not fully specified (residue 8); also: one triazole-linked A77 group on the PEG8 linker

The molecules below were run against T1, Insulin-like growth factor 2 receptor (IGF-1IR, cation-independent mannose-6-phosphate receptor, CI-MPR; hIGF-IIR) (Homo sapiens, UniProt P11717) (assay: HTRF-based ternary complex inhibition assay for relative affinity of IGF-IIR ligands). Conditions: competition with MTAC probe for His-tagged hIGF-IIR; biotinylated IgG1; apparent binding affinity; read-out: TCF INH (HTRF) IC50.
T1 construct: purchased R&D Systems 6418-GR
Experimental: The apparent binding affinity of Insulin-like growth factor 2 receptor (IGF-1IR, also called the cation- independent mannose-6-phosphate receptor (CI-MPR)) ligands was determined indirectly by competing with a probe molecule for binding to IGF-1IR. The probe is a Mannose 6-Phosphate Ligand (“Ligand”) and binds to hIGF-IIR and IgG1 to form a hIGF-IIR: Ligand: IgG1 ternary complex. The ternary complex was detected by an HTRF readout. The ternary complex is disrupted in the presence of IGF-1IR ligand, resulting in decreased HTRF signal. IGF-1IR ligands of 3-fold dilution series were prepared from 10 mM DMSO stock on a 384-well LDV microplate using Echo Acoustic Liquid Handler (Beckman Coulter Life Sciences) followed by transfer of 600 nL of the solutions to an OptiPlate 384-well microplate (PerkinElmer, 6007290). Manose-6-phosphate (M6P; J&K, 530168) and glucose-6-phosphate (G6P; Sigma, V900924) were prepared from 100 mM stock in the same manner and were used as positive and negative controls, respectively. The wells used as 0% and 100% inhibition controls were prepared by adding 600 nL DMSO. 20 nL of 50 μM MTAC probe was transferred to all wells except the wells used as 100% Inhibition control. 9.4 μL working solution containing 65.1 nM of Biotinylated-IgG1 (Viva 20211108) and 65.1 nM of His-tagged hIGF-IIR (R&D Systems, 6418-GR) in assay buffer 50 mM Tris, pH 7.5, 150 mM NaCl, 50 mM CaCl2, 0.01% Tween-20 was transferred to all wells. The plate was incubated at room temperature for 60 min with gentle shaking to allow molecular interaction to reach equilibration. Following this, 10 μL of HTRF detection solution containing 15 nM Streptavidin-d2 (PerkinElmer, 610SADLA) and 0.7 nM MAb Anti 6HIS—Tb cryptate (PerkinElmer, 61HISTLA) in PPI Terbium detection buffer (PerkinElmer, 61DB10RDF) was added. The assay plate was incubated at room temperature with gentle shaking for 60 min to allow HTRF signal to develop. The plate was gently spun on a centrifuge then placed on a EnVision plate reader (Perkin Elmer, EnVision 2104) to read fluorescence ratio of 665 nm/615 nm. Percent inhibitions were calculated with this equation: % I=100* [1−(X−100% I/(0% I−100% I)] where X is the […] in the presence of IGF-1IR ligand. The apparent binding affinity (presented as IC50) was calculated by fitting the % inhibition data with a non-linear 4-parameter inhibition equation using GraphPad Prism (GraphPad Software, LLC; version 9.4.1).
With `C#CCCOC1O[C@H](CCS(=O)(=O)Nc2ncccn2)[C@@H](O)[C@H](O)[C@@H]1O` (stereo partly drawn) [Compound A14, 2-((2R,3S,4S,5S)-6-(but-3-yn-1-yloxy)-3,4,5-trihydroxytetrahydro-2H-pyran-2-yl)-N-(pyrimidin-2-yl)ethane-1-sulfonamide] the IC50 was 100000 to 300000 nM.
In the case of `NC[C@H]1O[C@H](O)[C@@H](O)[C@@H](O)[C@@H]1O` [Compound A41, (2S,3S,4S,5S,6R)-6-(aminomethyl)tetrahydro-2H-pyran-2,3,4,5-tetraol hydrochloride], the IC50 is reported as 10000 to 100000 nM.
Work on `COC(=O)c1ccc(O[C@H]2O[C@H](CNc3c(O)c(=O)c3=O)[C@@H](O)[C@H](O)[C@@H]2O)cc1` [Compound A7, methyl 4-(((3S,4S,5S,6R)-3,4,5-trihydroxy-6-(((2-hydroxy-3,4-dioxocyclobut-1-en-1-yl)amino)methyl)tetrahydro-2H-pyran-2-yl)oxy)benzoate] yielded an IC50 of 100000 to 300000 nM.

The molecules below were run against T2, hIGF-IIR and IgG1 (ternary complex) (Homo sapiens, UniProt P01857+P11717) (assay: HTRF-based ternary complex formation assay for hIGF-IIR targeting Extracellular Protein Degraders). Conditions: not given.
T2 construct: purchased R&D Systems 6418-GR
Assay type: binding
From the text: The ternary complex formation assay is designed to identify and determine the potency of Extracellular Protein Degrader molecules which can induce the formation of ternary complex between the Extracellular Protein Degrader hIGF-IIR. Titrating Extracellular Protein Degrader to fixed amount of hIGF-IIR results in a bell-shaped curve (except molecules whose binary complex affinity between Extracellular Protein Degrader and hIGF-IIR). The peak mean represents Extracellular Protein Degrader concentration at which maximum ternary complex is formed. Too much or too little Extracellular Protein Degrader leads to decreased ternary complex formation due to formation of binary complex (Hook effect). Dose response of Extracellular Protein Degrader compounds (16-point 3-fold dilution series, 100X) were prepared by Echo Acoustic Liquid Handler (Beckman Coulter Life Sciences) using 384-well LDV microplate. Then 200 nL of the solutions were transferred to an OptiPlate 384-well microplate (PerkinElmer, 6007290). To the assay plate, 10 μL working solution containing 60 nM of Biotinylated-IgG1 (Viva 20211108) and 60 nM of His-tagged hIGF-IIR (R&D Systems, 6418-GR) in assay buffer 50 mM Tris, pH 7.5, 150 mM NaCl, 50 mM CaCl2, 0.01% Tween-20 were added. The plate was incubated for 60 min at room temperature with gentle shaking to allow molecular interaction to reach equilibration. Following this, 10 μL of HTRF detection solution containing 15 nM Streptavidin-d2 (PerkinElmer, 610SADLA) and 0.7 nM MAb Anti 6HIS—Tb cryptate (PerkinElmer, 61HISTLA) in PPI Terbium detection buffer (PerkinElmer, 61DB10RDF) were added. The assay plate was incubated at room temperature with gentle shaking for 60 min to allow HTRF signal to develop. The plate was gently spun on a centrifuge then placed on an EnVision plate reader (Perkin Elmer, EnVision 2104) to read fluorescence ratio of 665 nm/615 nm. Data were analyzed by fitting with Bell-shaped non-linear regression model using GraphPad Prism (GraphPad Software, LLC; version 9.4.1). Mean fluorescence intensity is graphed versus compound concentration and the EC50 for TCF is calculated from the inflection point of the curve (GraphPad).
For `COc1ccc(OC2O[C@H](CCP(=O)(O)Cc3cccc(OCc4cn(CCOCCNC(=O)CCOCC(COCCC(=O)NCCOCCn5cc(COc6cccc(CP(=O)(O)CC[C@@H]7OC(Oc8ccc(OC)cc8)[C@H](O)[C@H](O)[C@H]7O)c6)nn5)(COCCC(=O)NCCOCCn5cc(COc6cccc(CP(=O)(O)CC[C@@H]7OC(Oc8ccc(OC)cc8)[C@H](O)[C@H](O)[C@H]7O)c6)nn5)NC(=O)COCCOCCOCC(=O)N[C@H]5C[C@H]6C(=O)N[C@@H](CC(=O)O)C(=O)N[C@H]7CSSC[C@H](NC(=O)[C@H](Cc8c[nH]c9ccccc89)NC(=O)[C@H](C(C)C)NC(=O)[C@H](CC(C)C)NC(=O)[C@H](CCC(=O)O)NC(=O)CNC(=O)[C@H](CC(C)C)NC(=O)[C@H](Cc8cnc[nH]8)NC(=O)[C@H](Cc8c[nH]c9ccccc89)NC(=O)[C@H](C)NC7=O)C(=O)N[C@@H]([C@@H](C)O)C(=O)N7CCC[C@@H]7C(=O)N6C5)nn4)c3)[C@@H](O)[C@H](O)[C@@H]2O)cc1` (stereo partly drawn) [Compound 1], the EC50 was less than 50 nM.
`COc1ccc(OC2O[C@H](CCP(=O)(O)Cc3cn(CCOCCNC(=O)CCOCC(COCCC(=O)NCCOCCn4cc(CP(=O)(O)CC[C@@H]5OC(Oc6ccc(OC)cc6)[C@H](O)[C@H](O)[C@H]5O)nn4)(COCCC(=O)NCCOCCn4cc(CP(=O)(O)CC[C@H]5OC(Oc6ccc(OC)cc6)[C@@H](O)[C@@H](O)[C@@H]5O)nn4)NC(=O)COCCOCCOCC(=O)N[C@H]4C[C@H]5C(=O)N[C@@H](CC(=O)O)C(=O)N[C@H]6CSSC[C@H](NC(=O)[C@H](Cc7c[nH]c8ccccc78)NC(=O)[C@H](C(C)C)NC(=O)[C@H](CC(C)C)NC(=O)[C@H](CCC(=O)O)NC(=O)CNC(=O)[C@H](CC(C)C)NC(=O)[C@H](Cc7c[nH]cn7)NC(=O)[C@H](Cc7c[nH]c8ccccc78)NC(=O)[C@H](C)NC6=O)C(=O)N[C@@H]([C@@H](C)O)C(=O)N6CCC[C@@H]6C(=O)N5C4)nn3)[C@@H](O)[C@H](O)[C@@H]2O)cc1` (stereo partly drawn) [Compound 10] gave an EC50 of less than 50 nM.

Same assay, conditions: biotinylated IgG1 and His-tagged hIGF-IIR, 60 nM each; read-out: TCF (HTRF) EC50
Molecule `CC(C)C[C@@H]1NC(=O)[C@H](Cc2c[nH]cn2)NC(=O)[C@H](Cc2c[nH]c3ccccc23)NC(=O)[C@H](C)NC(=O)[C@@H]2CSSC[C@H](NC(=O)[C@H](Cc3c[nH]c4ccccc34)NC(=O)[C@H](C(C)C)NC(=O)[C@H](CC(C)C)NC(=O)[C@H](CCC(=O)O)NC(=O)CNC1=O)C(=O)N[C@@H]([C@@H](C)O)C(=O)N1CCC[C@@H]1C(=O)N1C[C@@H](NC(=O)CCOCCOCCOCCOCCOCCOCCOCCOCCn3cc(CCO[C@H]4O[C@H](CCP(=O)(O)O)[C@@H](O)[C@H](O)[C@@H]4O)nn3)C[C@H]1C(=O)N[C@@H](CC(=O)O)C(=O)N2` [Compound 6] has an EC50 of less than 50 nM.
`COc1ccc(OC2O[C@H](CCP(=O)(O)Cc3cn(CCOCCOCCOCCOCCOCCOCCOCCOCCC(=O)N[C@H]4C[C@H]5C(=O)N[C@@H](CC(=O)O)C(=O)N[C@H]6CSSC[C@H](NC(=O)[C@H](Cc7c[nH]c8ccccc78)NC(=O)[C@@H](C(C)C)NC(=O)[C@@H](CC(C)C)NC(=O)[C@H](CCC(=O)O)NC(=O)CNC(=O)[C@@H](CC(C)C)NC(=O)[C@H](Cc7cnc[nH]7)NC(=O)[C@H](Cc7c[nH]c8ccccc78)NC(=O)[C@H](C)NC6=O)C(=O)N[C@H]([C@@H](C)O)C(=O)N6CCC[C@@H]6C(=O)N5C4)nn3)[C@@H](O)[C@H](O)[C@@H]2O)cc1` (stereo partly drawn) [Compound 11] gave an EC50 of less than 50 nM.

Each molecule was assayed against Biotinylated-IgG1 (Viva 20211108) (assay: HTRF ternary complex formation: compound titrated into 60 nM biotinylated IgG1 + 60 nM His-tagged hIGF-IIR (R&D 6418-GR); grade read by the legend '<50 nM = ***'). Conditions: not given.
B1 was tested, and the EC50 was less than 50 nM.
In the case of B2, the EC50 is reported as less than 50 nM.
B3 showed an EC50 of less than 50 nM.
B4 gave an EC50 of less than 50 nM.
In the case of B5, the EC50 is reported as less than 50 nM.
